Results reported in BigSolDB 2.1.

Nc1ccc(S(=O)(=O)Nc2ncccn2)cc1
solubility (mole fraction)
Details	293.15 K	298.15 K	303.15 K	308.15 K	313.15 K
in ethanol	6.26e-06	7.74e-06	9.46e-06	1.17e-05	1.38e-05
in water	3.8e-07	4.81e-07	6.49e-07	8.7e-07	1.14e-06
